In patent US20120027777A1, “LJUNGAN VIRUS WITH IMPROVED REPLICATION CHARACTERISTICS” (APODEMUS AB, priority 2009, published 2012):

System: GMK cells
Test: Cellular DNA degradation by electrophoresis
Assay type: cell-based, Green Monkey
Details: uninfected GMK cells, 16 h treatment, 0.5 μM, positive control
Procedure: Degradation of chromosomal DNA is one of the hallmarks of apoptotic cells. DNA degradation in GMK cells infected with 145SL and 145SLG as well as recombinant derivatives of these viruses was assayed as previously described by with some minor modifications. Briefly, subconfluent GMK cells in T25-flasks were infected with 0.5 mL of virus lysates generated from viral cDNA clones by transfection and subsequent blind passage as previously described. […] Lysis of cells was induced using 0.2% Triton X-100, 0.5 mM EDTA in 10 mM Tris-HCl, pH 7.4. Fragmented chromatin was released from cell nuclei by vortexing. The nucleic components were separated (20,000×g for 10 min at 4° C.) and the nucleic acids in the supernatant fraction were precipitated. After precipitation, the nucleic acids were washed in 70% ethanol and dissolved in 50 μl TE buffer (1 mM EDTA, 10 mM Tris-HCl, pH 7.4). The RNA fraction of isolated nucleic acids was degraded using RNase A (10 μg/ml for 30 min at 37° C.). Finally, 1 μg isolated nucleic acids of each sample were separated by electrophoresis in a 1.5% agarose gel. Apoptosis in control cells was induced by a 16 h treatment of GMK cells with 0.5 μM staurosporine (Sigma), a broad spectrum protein kinase inhibitor [10]. The nucleic acids from these control cells were otherwise treated in the same way as described for cells infected with LV.

CN[C@@H]1C[C@H]2O[C@@](C)([C@@H]1OC)n1c3ccccc3c3c4c(c5c6ccccc6n2c5c31)C(=O)NC4 [staurosporine]
DNA fragmentation: expected processing of the nuclear DNA
